# Assay results: US9561231B2 (AbbVie Inc., priority 2012, dated 2017)
# What was measured:
# [1] = system: breast cancer cell line MX-1; assay: MX-1 cell line proliferation assay (3-day); assay type: cell-based; settings: Homo sapiens, MX1; MX-1 cells, 72 h incubation, Cell Titer Glo; read-out: Cellular proliferation: EC50
# Experimental: The impact of compounds of the Examples on cancer cell proliferation was determined using the breast cancer cell line MX-1 (ATCC) in a 3-day proliferation assay. MX-1 cells were maintained in RPMI supplemented with 10% FBS at 37° C. and an atmosphere of 5% CO2. For compound testing, MX-1 cells were plated in 96-well black bottom plates at a density of 5000 cells/well in 90 μL of culture media and incubated at 37° overnight to allow cell adhesion and spreading. Compound dilution series were prepared in DMSO via a 3-fold serial dilution from 3 mM to 0.1 μM. The DMSO dilution series were then diluted 1:100 in phosphate buffered saline, and 10 μL of the resulted solution were added to the appropriate wells of the MX-1 cell plate. The final compound concentrations in the wells were 3, 1, 0.3, 0.1, 0.03, 0.01, 0.003, 0.001, 0.0003 and 0.0001 μM.
# Luminescence readings from the Cell Titer Glo assay were normalized to the DMSO treated cells and analyzed using the GraphPad Prism software with sigmoidal curve fitting to obtain EC50s.
# [2] = target: T1, first (BD1: amino acids K57-E168) bromodomain of BRD4 (Homo sapiens, UniProt O60885); assay: TR-FRET bromodomain binding assay, BRD4 BD1; settings: TR-FRET assay protocol (A-G, compound concentration range); Ki calculated from IC50, probe Kd and probe concentration; read-out: TR-FRET Binding Ki: BRD4 (BDI_K57-E168)
# T1 construct: His-tagged first (BD1: amino acids K57-E168)
# How it was run: (§1)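 Compounds were serially diluted in DMSO, diluted into pH 6.0 phosphate buffer with NaCl, EDTA, Triton X-100 and DTT, then combined with His-tagged bromodomain and an Alexa647-labeled BET-inhibitor probe. TR-FRET was read, percent inhibition fitted to give IC50, and Ki derived using probe Kd.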
# [3] = target: T2, second (BD2: amino acids E352-E168) bromodomain of BRD4 (Homo sapiens, UniProt O60885); assay: TR-FRET bromodomain binding assay, BRD4 BD2; settings: TR-FRET assay protocol (A-G, compound concentration range); Ki calculated from IC50, probe Kd and probe concentration; read-out: TR-FRET Binding Ki: BRD4 (BDII_E352-M457)
# T2 construct: protocol
# How it was run: as §1
EC50 [1],Ki [2],Ki [3],SMILES
1730 nM,70.8 nM,92.5 nM,"Cn1nc(-c2ccccc2Oc2ccccc2)c(-c2ccc(CN3CCCCC3)cc2)cc1=O [Example 67, 2-methyl-6-(2-phenoxyphenyl)-5-[4-(piperidin-1-ylmethyl)phenyl]pyridazin-3(2H)-one]"
1110 nM,63.1 nM,71.9 nM,"CC1CCN(Cc2ccc(-c3cc(=O)n(C)nc3-c3ccccc3Oc3ccccc3)cc2)CC1 [Example 68, 2-methyl-5-{4-[(4-methylpiperidin-1-yl)methyl]phenyl}-6-(2-phenoxyphenyl)pyridazin-3(2H)-one]"
> 3000 nM,98 nM,225 nM,"CCN(CC)Cc1ccc(-c2cc(=O)n(C)nc2-c2ccccc2Oc2ccccc2)cc1 [Example 69, 5-{4-[(diethylamino)methyl]phenyl}-2-methyl-6-(2-phenoxyphenyl)pyridazin-3(2H)-one]"
815 nM,89.1 nM,62 nM,"Cn1nc(-c2ccccc2Oc2ccccc2)c(-c2ccc(CN3CCNCC3)cc2)cc1=O [Example 70, 2-methyl-6-(2-phenoxyphenyl)-5-[4-(piperazin-1-ylmethyl)phenyl]pyridazin-3(2H)-one]"
398 nM,62.2 nM,133 nM,"Cn1nc(-c2ccccc2Oc2ccccc2)c(-c2ccc(CN3CCCC3)cc2)cc1=O [Example 71, 2-methyl-6-(2-phenoxyphenyl)-5-[4-(pyrrolidin-1-ylmethyl)phenyl]pyridazin-3(2H)-one]"
3750 nM,225 nM,128 nM,"CC(O)c1ccc(-c2cc(=O)n(C)nc2-c2ccccc2Oc2ccccc2)cc1 (stereo not drawn) [Example 72, 5-[4-(1-hydroxyethyl)phenyl]-2-methyl-6-(2-phenoxyphenyl)pyridazin-3(2H)-one]"
1130 nM,462 nM,307 nM,"CC(C)C(O)c1ccc(-c2cc(=O)n(C)nc2-c2ccccc2Oc2ccccc2)cc1 (stereo not drawn) [Example 73, 5-[4-(1-hydroxy-2-methylpropyl)phenyl]-2-methyl-6-(2-phenoxyphenyl)pyridazin-3(2H)-one]"
1390 nM,264 nM,195 nM,"CCC(O)c1ccc(-c2cc(=O)n(C)nc2-c2ccccc2Oc2ccccc2)cc1 (stereo not drawn) [Example 75, 5-[4-(1-hydroxypropyl)phenyl]-2-methyl-6-(2-phenoxyphenyl)pyridazin-3(2H)-one]"
> 3000 nM,435 nM,211 nM,"COCc1ccc(-c2cc(=O)n(C)nc2-c2ccccc2Oc2ccccc2)cc1 [Example 78, 5-[4-(methoxymethyl)phenyl]-2-methyl-6-(2-phenoxyphenyl)pyridazin-3(2H)-one]"
1870 nM,126 nM,87.5 nM,"Cn1nc(-c2ccccc2Oc2ccccc2)c(-c2ccc(CO)cc2)cc1=O [Example 79, 5-[4-(hydroxymethyl)phenyl]-2-methyl-6-(2-phenoxyphenyl)pyridazin-3(2H)-one]"
> 3000 nM,1120 nM,733 nM,"Cn1nc(-c2ccccc2Oc2ccccc2)c(C2=CCN(C(=O)OC(C)(C)C)CC2)cc1=O [Example 81, tert-butyl 4-[1-methyl-6-oxo-3-(2-phenoxyphenyl)-1,6-dihydropyridazin-4-yl]-3,6-dihydropyridine-1(2H)-carboxylate]"
1130 nM,770 nM,455 nM,"COC(=O)CCc1ccc(-c2cc(=O)n(C)nc2-c2ccccc2Oc2ccccc2)cc1 [Example 92, methyl 3-{4-[1-methyl-6-oxo-3-(2-phenoxyphenyl)-1,6-dihydropyridazin-4-yl]phenyl}propanoate]"
> 3000 nM,172 nM,145 nM,"Cn1nc(-c2ccccc2Oc2ccccc2)c(-c2ccc(C3=NCCCO3)cc2)cc1=O [Example 95, 5-[4-(5,6-dihydro-4H-1,3-oxazin-2-yl)phenyl]-2-methyl-6-(2-phenoxyphenyl)pyridazin-3(2H)-one]"

# The next lines start with the molecule.
SMILES,EC50 [1],Ki [2],Ki [3]
"CCNC(=O)Nc1ccc(Oc2ccccc2)c(-c2nn(C)c(=O)cc2OC)c1 [Example 30, 1-ethyl-3-[3-(4-methoxy-1-methyl-6-oxo-1,6-dihydropyridazin-3-yl)-4-phenoxyphenyl]urea]",12900 nM,> 2380 nM,1330 nM
"COc1cc(=O)n(C)nc1-c1ccccc1Oc1ccc(F)cc1 [Example 33, 6-[2-(4-fluorophenoxy)phenyl]-5-methoxy-2-methylpyridazin-3(2H)-one]",4100 nM,3000 nM,2290 nM
"COc1cc(=O)n(C)nc1-c1ccccc1Oc1ccc(Cl)cc1 [Example 37, 6-[2-(4-chlorophenoxy)phenyl]-5-methoxy-2-methylpyridazin-3(2H)-one]",10000 nM,1730 nM,1790 nM
"CCOC(=O)C1CCN(c2cc(=O)n(C)nc2-c2ccccc2Oc2ccccc2)C1 (stereo not drawn) [Example 49, ethyl 1-[1-methyl-6-oxo-3-(2-phenoxyphenyl)-1,6-dihydropyridazin-4-yl]pyrrolidine-3-carboxylate]",7110 nM,6680 nM,748 nM
"COC(=O)CNc1cc(=O)n(C)nc1-c1ccccc1Oc1ccccc1 [Example 50, methyl N-[1-methyl-6-oxo-3-(2-phenoxyphenyl)-1,6-dihydropyridazin-4-yl]glycinate]",9520 nM,2100 nM,2420 nM
"Cn1nc(-c2ccccc2Oc2ccccc2)c(-c2ccnc(F)c2)cc1=O [Example 54, 5-(2-fluoropyridin-4-yl)-2-methyl-6-(2-phenoxyphenyl)pyridazin-3(2H)-one]",4240 nM,4120 nM,356 nM
"Cn1nc(-c2ccccc2Oc2ccccc2)c(-c2cc[nH]c(=O)c2)cc1=O [Example 55, 2-methyl-5-(2-oxo-1,2-dihydropyridin-4-yl)-6-(2-phenoxyphenyl)pyridazin-3(2H)-one]",13700 nM,6890 nM,778 nM
"Cn1ccc(-c2cc(=O)n(C)nc2-c2ccccc2Oc2ccccc2)cc1=O [Example 56, 2-methyl-5-(1-methyl-2-oxo-1,2-dihydropyridin-4-yl)-6-(2-phenoxyphenyl)pyridazin-3(2H)-one]",10400 nM,2900 nM,341 nM
"COc1cc(-c2cc(=O)n(C)nc2-c2ccccc2Oc2ccccc2)ccn1 [Example 57, 5-(2-methoxypyridin-4-yl)-2-methyl-6-(2-phenoxyphenyl)pyridazin-3(2H)-one]",1860 nM,598 nM,250 nM
"COc1cc(-c2cc(=O)n(C)nc2-c2cc(NS(C)(=O)=O)ccc2Oc2ccccc2)ccn1 [Example 58, N-{3-[4-(2-methoxypyridin-4-yl)-1-methyl-6-oxo-1,6-dihydropyridazin-3-yl]-4-phenoxyphenyl}methanesulfonamide]",444 nM,264 nM,63.5 nM
"CCOC(=O)c1cccc(-c2cc(=O)n(C)nc2-c2ccccc2Oc2ccccc2)c1 [Example 59, ethyl 3-[1-methyl-6-oxo-3-(2-phenoxyphenyl)-1,6-dihydropyridazin-4-yl]benzoate]",> 30000 nM,9790 nM,2110 nM
"CN1CCN(Cc2cccc(-c3cc(=O)n(C)nc3-c3ccccc3Oc3ccccc3)c2)CC1 [Example 60, 2-methyl-5-{3-[(4-methylpiperazin-1-yl)methyl]phenyl}-6-(2-phenoxyphenyl)pyridazin-3(2H)-one]",> 3000 nM,170 nM,413 nM
"CN1CCN(Cc2ccc(-c3cc(=O)n(C)nc3-c3ccccc3Oc3ccccc3)cc2)CC1 [Example 61, 2-methyl-5-{4-[(4-methylpiperazin-1-yl)methyl]phenyl}-6-(2-phenoxyphenyl)pyridazin-3(2H)-one]",911 nM,33.1 nM,48.9 nM
"CN1CCN(Cc2ccc(-c3cc(=O)n(C)nc3-c3cc(NS(C)(=O)=O)ccc3Oc3ccccc3)cc2)CC1 [Example 62, N-[3-(1-methyl-4-{4-[(4-methylpiperazin-1-yl)methyl]phenyl}-6-oxo-1,6-dihydropyridazin-3-yl)-4-phenoxyphenyl]methanesulfonamide]",281 nM,7.49 nM,5.13 nM
"Cc1ccc(-c2cc(=O)n(C)nc2-c2cc(NS(C)(=O)=O)ccc2Oc2ccccc2)cc1 [Example 63, N-{3-[1-methyl-4-(4-methylphenyl)-6-oxo-1,6-dihydropyridazin-3-yl]-4-phenoxyphenyl}methanesulfonamide]",739 nM,85.2 nM,23.9 nM
"Cn1nc(-c2ccccc2Oc2ccccc2)c(-c2ccc(CN3CCOCC3)cc2)cc1=O [Example 66, 2-methyl-5-[4-(morpholin-4-ylmethyl)phenyl]-6-(2-phenoxyphenyl)pyridazin-3(2H)-one]",2480 nM,141 nM,159 nM
